For assay [1], the system named is dopaminergic activity, cat right atrium. Briefly: "in vitro" inhibition of the answer to electric stimulation of cat right atrium (dopaminergic activity). The class given is biochemical. The source says:
(§1) Furthermore, the compounds of formula I show a remarkable dopaminergic activity in addition to an α1 -antagonistic effect. The dopaminergic activity has been evaluated by receptor binding tests as "in vitro" receptor affinity on isolated membranes of rat striated muscle and by pharmacological tests as "in vitro" inhibition of the answer to electric stimulation of cat right atrium.

The target of assay [2] is dopaminergic receptor (isolated membranes of rat striated muscle). Briefly: receptor binding test, dopaminergic "in vitro" receptor affinity on isolated membranes of rat striated muscle.
From the text: as §1

The nature of assay [3]: effects on systemic arterial pressure, heart rate and vascular resistances in anesthetized dog, intravenous route. The class given is in vivo. The protocol:
In fact, the compounds object of the present invention reduce meaningfully systemic arterial pressure after administration by intravenous route in anesthetized dog (see example 11). The compound N-[2-(2,6-dichlorophenoxy)-ethyl]-N-propyl-2-amino-5,6-dihydroxy-1,2,3,4-tetrahydronaphthalene hydrochloride (Compound A) was tested by intravenous route in anesthetized dog in order to evaluate the effects on systemic arterial pressure. Compound A, administered by intravenous route at the doses of 10 and 20 μg/kg, reduced systemic arterial pressure as well as peripheral resistances and particularly femoral resistances, the last reduction being associated also with an increase of the corresponding haematic flow.

The target of assay [4] is α1 receptor (rat cerebral cortex). Briefly: α1 receptor binding on rat cerebral cortex. The source says: (§2) The α1 -antagonistic activity has been evaluated as receptor binding on rat cerebral cortex and as antagonism to contraction induced by phenylephrine (α1 -agonist) on rabbit aorta.
In the next assay the test system is α1 (rabbit aorta). Briefly: antagonism to contraction induced by phenylephrine (α1-agonist) on rabbit aorta. It counts as biochemical.
From the text: as §2

Data on one compound can be found in patent publication US5151414A, “Phenoxyethyl amine compounds active on the cardiovascular system” (SIMES Societa Italiana Medicinali e Sintetici S.p.A., priority 1987, dated 1992).

As for `CCCN(CCOc1c(Cl)cccc1Cl)C1CCc2c(ccc(O)c2O)C1.Cl` (stereo not drawn) [Compound A, N-[2-(2,6-dichlorophenoxy)-ethyl]-N-propyl-2-amino-5,6-dihydroxy-1,2,3,4-tetrahydronaphthalene hydrochloride], the values for the IC50 in assay [1], in assay [2] and in assay [4] were 8500 nM, 251 nM and 76 nM, respectively. Moreover, the Renal resistances in assay [3] (10 μg/kg iv, basal 1.007 + 0.186) is reported as 0.871 ± 0.162 mmHg/ml/min; in assay [3] (20 μg/kg iv, basal 1.246 + 0.389), 1.082 ± 0.367 mmHg/ml/min. Further, the Femoral resistances was determined as 1.802 ± 0.471 mmHg/ml/min in assay [3] (10 μg/kg iv, basal 2.471 + 0.260) and 1.274 ± 0.171 mmHg/ml/min in assay [3] (20 μg/kg iv, basal 2.445 + 0.787). The a. femoral flow in assay [3] (10 μg/kg iv, basal 54.1 + 3.8) amounted to 67.4 ± 12.4 mL/min; in assay [3] (20 μg/kg iv, basal 65.6 + 20.0) it was 87.8 ± 20.0 mL/min. Besides, the “Arterial pressure Mn” value in assay [3] (10 μg/kg iv, basal 118 + 5) stood at 102 ± 8 mmHg; in assay [3] (20 μg/kg iv, basal 118 + 9), 96 ± 11 mmHg. For the same compound, the “Arterial pressure Md” value was found to be 119 ± 7 mmHg in assay [3] (10 μg/kg iv, basal 136 + 4) and 109 ± 9 mmHg in assay [3] (20 μg/kg iv, basal 132 + 8). Further, the a. renal flow in assay [3] (10 μg/kg iv, basal 143.7 + 23.7) turned out to be 144.7 ± 20.6 mL/min; in assay [3] (20 μg/kg iv, basal 129.9 + 31.8), 128.9 ± 31.3 mL/min. For the same compound, the Heart rate in assay [3] (10 μg/kg iv, basal 152 + 11) turned out to be 161 ± 12 beats/min; in assay [3] (20 μg/kg iv, basal 136 + 13), 146 ± 17 beats/min. In addition, the “Arterial pressure Mx” value in assay [3] (10 μg/kg iv, basal 160 + 10) was 145 ± 8 mmHg; in assay [3] (20 μg/kg iv, basal 148 + 8), 124 ± 9 mmHg. Besides, the “femoral resistances (in words)” value in assay [3] (intravenous, 10 and 20 μg/kg) is reported as “reduced”. Further, the “haematic flow, femoral (in words)” value in assay [3] (intravenous, 10 and 20 μg/kg) is “increase”. In addition, the “peripheral resistances (in words)” value in assay [3] (intravenous, 10 and 20 μg/kg) is on record as “reduced”. Also, in assay [3] (intravenous, 10 and 20 μg/kg), the “systemic arterial pressure (in words)” value is given as “reduced”. For the same compound, the “pA2 (rabbit aorta)” value in the assay on α1 (rabbit aorta) was determined as 7.42.

What is called IC50 is the concentration needed to halve the response being measured. High values mean a need for much substance, low ones inhibition by little substance.
